Results reported in patent US5089529A, “Butanol derivatives” (Nippon Shinyaku Co., Ltd., priority 1983, dated 1992).
Where two headings read alike, the source gives them in different places.

How the values were obtained:
[1] = test system: Arrhythmia in Mice Caused by Aconitine; experiment: Action against arrhythmia in mice caused by aconitine; type: in vivo, ddY-Male mice; conditions: Mus musculus
Protocol: A method by Nwangwu, et al (P.U. Nwangwu, T.L. Holcslow and S.J. Stohs: Arch. int. Pharmacodyn. 229, 219-226, 1977) was partly modified and the experiment was carried out. ddY-Male mice weighing 25 to 30 grams were used. One group was composed of four mice.
Arrhythmia was induced by infusion of aconitine at a concentration of 5 μg/ml in saline into a tail vein at the rate of 0.25 ml/min using a perfusion pump in mice anesthetized with Nembutal. Test drugs were administered orally or intraperitoneally 30 minutes prior to the start of infusion of aconitine. Incidentally, lidocaine was given intraperitoneally 15 minutes prior to administration of aconitine.
The status of arrhythmia was judged by an electrocardiographic recording (lead II) and, when the onset time of the arrhythmia was delayed more than "average time of untreated group plus 2SD", it was judged to have antiarrhythmic action. Then ED50 values were calculated by Weil's method from the effective rate at each dosage level.

[2] = test system: Arrhythmia in Dogs Caused by Digitalis; experiment: Arrhythmia in dogs caused by digitalis (digoxin); type: in vivo, Beagle dogs; conditions: anesthetized dogs
From the text: Beagle dogs weighing 10 to 14 kg were used. […] The arrhythmia was judged by an electrocardiographic recording (lead II) and, when there was an appearance of descending or ascending big QRS complex, it was judged that ventricular arrhythmia appeared.

Row | Structure (SMILES) | ED50 ([1]; ip, read-out: ED50, i.p.) [mg/kg] | ED50 ([1]; po, read-out: ED50, p.o.) [mg/kg] | Duration of Action ([2]; 2 mg/kg intravenous) [s] | Efficacy Ratio ([2]; 2 mg/kg intravenous) [%] | Duration of Action ([2]; 1 mg/kg intravenous) [s] | Efficacy Ratio ([2]; 1 mg/kg intravenous) [%]
1 | CC(C)CNCCCC(O)(c1ccccc1)c1ccccc1 [Example 10, 1,1-Diphenyl-4-isobutylamino-1-butanol] | 11.5 | 20.3 | 500 | 58.7 | – | –
2 | CC(C)CN(CCCC(O)(c1ccccc1)c1ccccc1)CC(C)C [Example 1, 4-Diisobutylamino-1,1-diphenyl-1-butanol] | 14.9 | 17.7 | 515 | 62.5 | 400 | 50.0
3 | CCN(CC)CC(=O)Nc1c(C)cccc1C [Lidocaine, reference compound] | 35.4 | – | 350 | 50.0 | – | –
4 | CC(C)N(CCC(C(N)=O)(c1ccccc1)c1ccccn1)C(C)C (centres unmarked) [Disopyramide, reference compound] | 12.5 | 29.7 | 365 | 57.1 | – | –
